According to patent US20240408064A1, “RAS INHIBITORS, COMPOSITIONS AND METHODS OF USE THEREOF” (GENETOLEAD INC., priority 2021, published 2024):
“And” between values parts separate entries of the source, which are not always exact repeats. Equal entries are not always repeated. “Also recorded” adds a separate entry of the source.

Experiments:
HRas^G12V [1] = biological target: T1, HRas^G12V (Homo sapiens (Human), UniProt P01112, G12V); assay: 19F DLB (ligand-observed 19F NMR) score; format: binding; parameters: scale not given here
In short: (§1)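 In the T2-CPMG experiment, echo spacing was 1 ms and total delays ranged over eight values from 1 to 800 ms. Both scores come from 600 MHz NMR of 50 μM HRas G12V mixed with fragment pools at 240 μM each, in phosphate buffer pH 7.4 with NaCl, MgCl2 and TCEP-d16. Ligand-observed 19F spectra were recorded with 1H decoupling, 64 scans and a 5 s relaxation delay.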

HRas^G12V [2] = biological target: T1, HRas^G12V; assay: 19F T2-CPMG NMR score; format: binding
In short: as §1

HRas^G12V [3] = biological target: T1, HRas^G12V; assay: Dissociation constant by NMR (1H/15N Fast-HSQC, 1H 1D protein-observed); format: binding; conditions: HRas^G12V; read-out: NMR Kd
Protocol: All NMR experiments were collected using 3 mm NMR tubes on a 600 MHz Bruker Avance III spectrometer equipped with a QCI helium cryoprobe and a SampleJet sample changer. The buffer used for NMR experiments was 25 mM sodium phosphate pH 7.4, 150 mM NaCl, 5 mM MgCl2, 1 mM TCEP-d16, 10% D2O. Data were processed using Bruker TopSpin.
(§2) ^1H/^15N Fast-HSQC experiments (Mori et al., Journal of Magnetic Resonance, Series B, Volume 108, Issue 1, July 1995, Pages 94-98) were recorded at a protein concentration of 50-100 μM.
(§3) Dissociation constants were obtained by monitoring changes in chemical shifts as a function of ligand concentration. The changes in chemical shifts (d) were calculated according to the following equation (Williamson, Progress in Nuclear Magnetic Resonance Spectroscopy, Volume 73, August 2013, Pages 1-16): d=√(1/2[δ_H^2+[…]]), Where δ are the changes in chemical shift in ppm for ^1H and ^15N and the correction factor (α) was set at 0.15.
(§4) ^1H 1D protein-observed experiments were recorded with 15-50 μM protein. The standard Bruker 1D ^1H sequence with excitation sculpting (zgesgp) was employed. A relaxation delay of 1 s was employed in order to use 256 scans while still keeping experimental time fairly short. Changes in protein chemical shift or peak intensity in the methyl region were monitored against compound concentration.

HRas^G12V [4] = biological target: T1, HRas^G12V; assay: Overall binding/activity in the various assays (NMR consensus binding)
In short: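 Fragments (240 µM each, pooled) screened against 50 µM HRas^G12V in 25 mM sodium phosphate pH 7.4, 150 mM NaCl, 5 mM MgCl2, 1 mM TCEP-d16 by 1H-decoupled 1D 19F NMR. Hits confirmed by ligand- and protein-observed 1D 1H, STD and T2-CPMG (aggregation check); consensus binding ranked, with 15N HSQC for sites and Kd.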

KRAS^G12D-GDP [5] = biological target: T2, KRAS^G12D-GDP (Homo sapiens (Human), UniProt P01116, G12D); assay: 19F DLB score, KRAS^G12D-GDP; format: binding; parameters: scale not given here
Protocol: (§5) Since the fragment library was curated using phosphate buffer, 25 mM sodium phosphate pH 7.4, 150 mM NaCl, 5 mM MgCl2, 1 mM TCEP-d16, 10% D2O Fresh TCEP was used for experiments. Screening was performed using ^1H-decoupled 1D ^19F experiment Bruker experiment (zgfhigqn.2) with 64 scans and a relaxation delay of 5 seconds. 50 μM HRas^G12V and 240 μM of each fragment in pools (mixtures) were used.
(§6) Hit confirmation was performed using the same ^19F experiment as the screen. Ligand-observed 1D ^1H, protein-observed 1D ^1H, ^1H T2-CPMG as well as Saturation Transfer Difference (STD) experiments were also run on the same samples. Ligand-observed 1D ^1H was run using the standard Bruker sequence with excitation sculpting (zgesgp) with a relaxation delay of 10 seconds and 16 scans per spectrum. Protein-observed 1D ^1H was performed using the same sequence with a relaxation delay of 1 second and 256 scans in order to increase the signal-to-noise of the protein resonances, while keeping the experimental time relatively short. The ^1H T2-CPMG experiment employed a modified version of the Bruker 1D ^1H zgesgp experiment with the addition of a CPMG pulse train after the first 90° excitation pulse. Total duration for each spin echo was fixed at 1 ms (τ=500 μs), while the number of echoes in the pulse train was varied according to the total time (T). The number of scans for each spectrum was 4 and eight delay times were run on each sample, ranging from 1 ms to 800 ms.
(§7) The activity of compounds of the invention regarding KRAS^G12D-GDP was measured in the same as in Example 80. The results obtained with the compounds in the various assays described above are depicted in Table 23.

KRAS^G12D-GDP [6] = biological target: T2, KRAS^G12D-GDP; assay: 19F T2-CPMG score, KRAS^G12D-GDP; format: binding
Protocol: as §5, §6, §7

KRAS^G12D-GDP [7] = biological target: T2, KRAS^G12D-GDP; assay: NMR Kd, KRAS^G12D-GDP; format: binding; conditions: 1H 1D protein-observed NMR, read-out: 1H 1D PO NMR Kd
Protocol: as §2, §3, §4, §7

KRAS^G12D-GDP [8] = biological target: T2, KRAS^G12D-GDP; assay: Overall activity in the various assays, KRAS^G12D-GDP; format: binding
Protocol: as §7

[9] = Solubility and free-state aggregation in the NMR screen; format: physicochemical; conditions: NMR buffer
Text: Fragment screening has been performed using a library containing 461 fragments that has been designed using cheminformatics parameters such as Rule of Three and PAINS analysis. All fragments have been curated by ^1H and ^19F NMR for structure verification, purity, solubility in phosphate buffer and lack of apparent aggregation under these conditions. Fragments were pooled according to chemical compatibility resulting in 31 different pools to increase screening throughput. The library was provided by NMX Research in Solutions Inc.
Because of its power to probe the intrinsically weak interactions (Kd) between targets and low-molecular weight fragments, NMR fragment-based lead discovery (FBLD) is a very useful biophysical method in early stage drug discovery, especially for challenging target proteins; including those with shallow binding pockets. Since FBLD screens are performed using low-molecular weight compounds (fragments) with lower structural complexity, the same chemical space can be covered using a smaller number of drug-like fragments versus use of large libraries of higher-molecular weight lead-like compounds as in high throughput screening (HTS) campaigns. Therefore, FBLD has a much higher hit rate than HTS using only several hundred to several thousand compounds in comparison with approximately 1 million compounds for HTS. Also, the small size of the compounds screened in FBLD means a better chance to fully match the interactions with small or transient pockets within the target protein, where these less tractable pockets cannot be accessed with standard classical HTS methods. […] We expect this methodology to be more advantageous than classical HTS methods for expediting the time from hit to lead (H2L) and allows for rapid access to high quality leads with lower attrition rates in subsequent lead optimization (LO) campaigns toward pre-clinical candidate selection. FBLD screening by NMR involves a “consensus binding” approach where several distinct NMR experiments (DLB, STD, CPMG) are applied along with a free-state aggregation detection method (T2-CPMG) to rank the compounds for their affinity to the receptor (HRAS in this case) whilst simultaneously monitoring the solution behavior and critical quality attributes of each compound. The latter helps to eliminate artifact binders which are highly problematic. We performed a fluorine screen involving 461 compounds that were derived from a highly curated fragment library. Moreover, two-dimensional ^15N HSQC NMR was also used to validate ligand-binding sites on the target protein. In addition, we employed protein-detected biophysical measurements were employed to determine fragment binding affinities to the target protein (Kd) by HSQC NMR. From the results, we picked the most interesting hit were picked, FS-1255 that was identified based on consensus binding evidence from all NMR detection methods, and based the lack of free-state aggregation by T2-CPMG. We chose to prioritize on FS-1255 which was the most promising fragment hit.

wild type HRAS [10] = biological target: T3, wild type HRAS (Homo sapiens (Human), UniProt P01112); assay: 19F DLB score, wild type HRAS; format: binding
Protocol: as §5, §6
(§8) The activity of compounds of the invention regarding wild type HRAS was measured in the same as in Example 80. The results obtained with the compounds in the various assays described above are depicted in Table 2.

wild type HRAS [11] = biological target: T3, wild type HRAS; assay: 19F T2-CPMG score, wild type HRAS; format: binding
Protocol: as §5, §6, §8

wild type HRAS [12] = biological target: T3, wild type HRAS; assay: NMR Kd, wild type HRAS; format: binding
Protocol: as §2, §3, §4, §8

SMILES	19F DLB Score (HRas^G12V [1])	19F T2-CPMG Score (HRas^G12V [2])	Kd (HRas^G12V [3])	Activity ranking on HRas^G12V (in words) (HRas^G12V [4])	19F DLB Score (KRAS^G12D-GDP [5])	19F T2-CPMG Score (KRAS^G12D-GDP [6])	Kd (KRAS^G12D-GDP [7])	Activity ranking on KRAS^G12D-GDP (in words) (KRAS^G12D-GDP [8])	Binding to HRas^G12V (in words) (HRas^G12V [4])	Solution behaviour in the NMR screen [9]	19F DLB Score (wild type HRAS [10])	19F T2-CPMG Score (wild type HRAS [11])	Kd (wild type HRAS [12])
CC(=O)N1CCN(C(=O)Cc2c[nH]c3cc(F)ccc23)CC1 [Compound 10040]	1.64	12.69	4.03 to 9.5 mM	More active	1.63	7.49	5.2 mM	most active	–	–	–	–	–
O=C(Cc1c[nH]c2cc(F)ccc12)Nc1cccc(F)c1 [Compound 10072]	–	–	–	–	–	–	–	–	low or no binding	Aggregated	–	–	–
CN(C)CC(=O)Nc1cccc(NC(=O)C(C#N)c2c[nH]c3cc(F)ccc23)c1 (centres unmarked) [Compound 11032]	4.73	<LLOQ	–	More active; also recorded: Most active	–	–	–	–	–	–	5.76	<LLOQ	–
CN(C)Cc1[nH]c2cc(F)ccc2c1C(CC(=O)O)c1ccccc1F (centres unmarked) [Compound 11066]	0.91	−0.25	–	More active	–	–	–	most active	–	–	–	–	–
CN(C)Cc1c[nH]c2cc(F)ccc12 [FS-1255, reference compound]	1.77 and 1.7 and 1.65	5.22	9.83 to 12 mM	–	1.51	3.62	–	–	weak binding affinity	–	–	–	6.07 mM
